Measurements taken from patent US20090143279A1 (priority 2007, published 2009).
Like-named read-outs stand apart in the source and are kept apart here.

Tests used:
C2C12 myotubes = details: for Viability / Viability (composite Z-score): Conc 20 μM; for Viability (composite Z-score): normalized score vs mock-treated (DMSO) wells
[1] = tested on: mitochondrial membrane potential; type: cell-based, mouse; details: for ΔΨm / ΔΨm (composite Z-score): Conc 20 μM; for ΔΨm (composite Z-score): normalized score vs mock-treated (DMSO) wells
OXPHOS gene expression = type: cell-based, mouse; details: for GE-HTS / GE-HTS (composite Z-score): Conc 20 μM; for GE-HTS (composite Z-score): normalized score vs mock-treated (DMSO) wells
nuOXPHOS transcripts = type: cell-based, mouse; details: for nucOX / nucOX (composite Z-score): Conc 20 μM; for nucOX (composite Z-score): normalized score vs mock-treated (DMSO) wells
cytochrome c = type: cell-based, mouse; details: for cyt c / cyt c (composite Z-score): Conc 20 μM; for cyt c (composite Z-score): normalized score vs mock-treated (DMSO) wells
[2] = tested on: cellular dehydrogenase activity; details: for MTT / MTT (composite Z-score): Conc 20 μM; for MTT (composite Z-score): normalized score vs mock-treated (DMSO) wells
mtOXPHOS transcripts = type: cell-based, mouse; details: for mitoOX / mitoOX (composite Z-score): Conc 20 μM; for mitoOX (composite Z-score): normalized score vs mock-treated (DMSO) wells
reactive oxygen species = type: cell-based, mouse; details: for ROS / ROS (composite Z-score): Conc 20 μM; for ROS (composite Z-score): normalized score vs mock-treated (DMSO) wells
[3] = composite Z-score vs mock-treated (DMSO) wells
[4] = normalized composite Z-score vs mock-treated (DMSO) wells

Compound `C=CC(C1=CC(=O)C(OC)=CC1=O)c1ccc(O)cc1` (centres unmarked) [4-methoxy-4′-hydroxy-dalbergione] has a Viability (C2C12 myotubes; [3]) of 1.548, a ΔΨm [1, 3] of 0.406 and a GE-HTS (OXPHOS gene expression; [3]) of −1.401. It also gave a nucOX (nuOXPHOS transcripts; [3]) of −1.406, a cyt c (cytochrome c; [3]) of 0.803 and an MTT [2, 3] of −0.877. It also gave a mitoOX (mtOXPHOS transcripts; [3]) of −1.071 and an ROS (reactive oxygen species; [3]) of 0.639.
`COc1ccccc1-c1cc(=O)c2c(OC)cccc2o1` [5,2′-dimethoxyflavone] showed a Viability (C2C12 myotubes; [4]) of −0.228, a ΔΨm [1, 4] of 1.002 and a GE-HTS (OXPHOS gene expression; [4]) of −0.862. The nucOX (nuOXPHOS transcripts; [4]) was −0.881, the cyt c (cytochrome c; [4]) was 1.046 and the MTT [2, 4] was −0.219. For the same compound, the mitoOX (mtOXPHOS transcripts; [4]) was −0.607 and the ROS (reactive oxygen species; [4]) was 0.645.
With `C=C1CCC2C(CC2(C)C)C(=C)CCC1=NO` (centres unmarked) [5-hydroxyiminoisocaryophyllene] the Viability (C2C12 myotubes; [3]) was 0.181, the ΔΨm [1, 3] was 0.413 and the GE-HTS (OXPHOS gene expression; [3]) was −0.023. The nucOX (nuOXPHOS transcripts; [3]) was −0.273, the cyt c (cytochrome c; [3]) was 0.117 and the MTT [2, 3] was 1.325. The mitoOX (mtOXPHOS transcripts; [3]) was 0.421 and the ROS (reactive oxygen species; [3]) was 0.922.
For `O=C(O)c1cc([N+](=O)[O-])ccc1NCCCc1ccccc1` [5-nitro-2-phenylpropylaminobenzoic acid], the “Viability (composite Z-score vs DMSO)” value (C2C12 myotubes) was −0.939, the “ΔΨm (composite Z-score vs DMSO)” value [1] was −0.937 and the “GE-HTS (composite Z-score vs DMSO)” value (OXPHOS gene expression) was 0.038. For the same compound, the “nucOX (composite Z-score vs DMSO)” value (nuOXPHOS transcripts) was 0.089, the “cyt c (composite Z-score vs DMSO)” value (cytochrome c) was 0.412 and the “MTT (composite Z-score vs DMSO)” value [2] was −0.786. For the same compound, the “mitoOX (composite Z-score vs DMSO)” value (mtOXPHOS transcripts) was −0.075 and the “ROS (composite Z-score vs DMSO)” value (reactive oxygen species) was 0.872.
`C[C@]12CC[C@H](O)C[C@@H]1CC[C@@H]1[C@@H]2CC[C@]2(C)[C@@H](O)CC[C@@H]12` [5alpha-androstan-3beta,17beta-diol] gave a Viability (C2C12 myotubes; composite Z-score vs DMSO) of −0.204, a ΔΨm ([1]; composite Z-score vs DMSO) of −1.116 and a GE-HTS (OXPHOS gene expression; composite Z-score vs DMSO) of 0.123. For the same compound, the nucOX (nuOXPHOS transcripts; composite Z-score vs DMSO) was 0.059, the cyt c (cytochrome c; composite Z-score vs DMSO) was 0.280 and the MTT ([2]; composite Z-score vs DMSO) was −0.454. The mitoOX (mtOXPHOS transcripts; composite Z-score vs DMSO) was 0.270 and the ROS (reactive oxygen species; composite Z-score vs DMSO) was 0.607.
For `CC(C)CCC[C@@H](C)[C@H]1CC[C@H]2[C@@H]3CC(=O)[C@H]4C[C@@H](O)CC[C@]4(C)[C@H]3CC[C@]12C` [5alpha-cholestan-3beta-ol-6-one], the Viability (C2C12 myotubes; composite Z-score vs DMSO) was −0.430, the ΔΨm ([1]; composite Z-score vs DMSO) was 0.479 and the GE-HTS (OXPHOS gene expression; composite Z-score vs DMSO) was −0.731. For the same compound, the nucOX (nuOXPHOS transcripts; composite Z-score vs DMSO) was −0.603, the cyt c (cytochrome c; composite Z-score vs DMSO) was 1.006 and the MTT ([2]; composite Z-score vs DMSO) was 0.811. The mitoOX (mtOXPHOS transcripts; composite Z-score vs DMSO) was −0.862 and the ROS (reactive oxygen species; composite Z-score vs DMSO) was 0.397.
`COc1cccc(-c2cc(=O)c3cc(OC)ccc3o2)c1` [6,3′-dimethoxyflavone] showed a Viability (C2C12 myotubes; [3]) of 0.413, a ΔΨm [1, 3] of 1.915 and a GE-HTS (OXPHOS gene expression; [3]) of 0.072. It also gave a nucOX (nuOXPHOS transcripts; [3]) of 0.087, a cyt c (cytochrome c; [3]) of 0.245 and an MTT [2, 3] of −1.534. The mitoOX (mtOXPHOS transcripts; [3]) was −0.021 and the ROS (reactive oxygen species; [3]) was −0.882.
In the case of `C=C1C2CC[C@@]3(C)[C@H](c4ccoc4)OC(=O)C[C@]13O[C@H]1CC(=O)C(C)(C)[C@H](C(OC(C)=O)C(=O)OC)[C@@]21C` (some centres unmarked) [6-acetoxyangolensic acid methyl ester], the “Viability (composite Z-score)” value (C2C12 myotubes) is reported as 0.671, the “ΔΨm (composite Z-score)” value [1] is reported as −0.055 and the “GE-HTS (composite Z-score)” value (OXPHOS gene expression) is reported as 1.379. The “nucOX (composite Z-score)” value (nuOXPHOS transcripts) was 1.291, the “cyt c (composite Z-score)” value (cytochrome c) was −0.105 and the “MTT (composite Z-score)” value [2] was −0.663. The “mitoOX (composite Z-score)” value (mtOXPHOS transcripts) was 1.272 and the “ROS (composite Z-score)” value (reactive oxygen species) was 1.137.
`C=C1C2CC[C@@]3(C)[C@H](c4ccoc4)OC(=O)C[C@]13O[C@H]1CC(=O)C(C)(C)[C@H](C(O)C(=O)OC)[C@@]21C` (some centres unmarked) [6-hydroxyangolensic acid methyl ester] gave a Viability (C2C12 myotubes; [3]) of 1.224, a ΔΨm [1, 3] of 0.463 and a GE-HTS (OXPHOS gene expression; [3]) of −1.426. The nucOX (nuOXPHOS transcripts; [3]) was −1.425, the cyt c (cytochrome c; [3]) was 0.817 and the MTT [2, 3] was −0.490. It also gave a mitoOX (mtOXPHOS transcripts; [3]) of −1.206 and an ROS (reactive oxygen species; [3]) of −0.249.
In the case of `CC(=O)OCC(=O)[C@@]1(O)CC[C@H]2[C@@H]3C[C@H](C)C4=CC(=O)C=C[C@]4(C)[C@H]3[C@@H](O)C[C@@]21C` [6alpha-methylprednisolone acetate], the “Viability (composite Z-score)” value (C2C12 myotubes) is reported as −0.480, the “ΔΨm (composite Z-score)” value [1] is reported as −0.462 and the “GE-HTS (composite Z-score)” value (OXPHOS gene expression) is reported as −0.130. The “nucOX (composite Z-score)” value (nuOXPHOS transcripts) was −0.518, the “cyt c (composite Z-score)” value (cytochrome c) was −0.364 and the “MTT (composite Z-score)” value [2] was −1.192. For the same compound, the “mitoOX (composite Z-score)” value (mtOXPHOS transcripts) was 0.750 and the “ROS (composite Z-score)” value (reactive oxygen species) was 0.321.
